# Measured values published in US20050112573A1, “Method of detecting toxic substance” (priority 2001, published 2005).
# Tested on: yeast genes (level of expressed mRNA)
# Experiment: DNA chip analysis of expressed mRNA of yeast genes after 2 h culture with a toxic chemical substance
# Assay type: cell-based, Saccharomyces cerevisiae S288C
# Procedure: Yeast (Saccharomyces cerevtisiae S288C (α SUC2mal mel gap2 CUP1)) were cultured at 25° C. on YPD medium (yeast extract 1%, polypepton 2%, glucose 2%). One of toxic chemical substances was added to the cell at logarithmic growth phase, and the cell was further cultured for two hours. Cell was cultured without any chemical substance in the same condition, and was used as control. Concentrations of the chemical substances were defined to inhibit the growth of the yeast but not lead to death.
# After the completion of cultivation, the culture was centrifuged to collect the cells. To the cells, sodium acetate buffer (50 mM sodium acetate, 10 mM EDTA, 1% SDS) was added, and the mixture was shaken at 65° C. for five minutes, followed by returning to room temperature, and obtaining the supernatant, which procedure was repeated two times. To the supernatant, ½ amount of a solution of phenol/chloroform was added, and the mixture was centrifuged to give a supernatant, which was added with an equal amount of chloroform, and the mixture was centrifuged to give a supernatant. To the supernatant, an equal amount of isopropanol containing 0.3 M sodium acetate was added, and the mixture was allowed to stand at room temperature for 30 minutes, after which the mixture was centrifuged to give a sediment of the whole RNAs. Seventy % ethanol was added to the sediment, and the mixture was again centrifuged to give a sediment, which was then dried and dissolved in water. mRNA was isolated from the whole RNAs as followings. In view of the fact that a poly A chain is attached to the 3′ terminus of mRNA, a polynucleotide having a poly T structure which was immobilized on the surface of latex beads was used to trap the mRNA, and then the mRNA was washed and eluted with spine column (Oligotex-dT30<Super>mRNA Purification Kit, Takara). Reverse transcription of the mRNA was conducted with a reverse transcriptase (Super Script II Reverse Transcriptase; catalogue No. 18064-014, GibcoBRL) using fluorescence-labeled nucleotides to give cDNAs that were introduced with Cy3-dUTP or Cy5-dUTP during the reverse transcription.
# The labeled cDNAs were dissolved in TE buffer (10 mM Tris-HCl/1 mM EDTA, pH8.0), and the solution was dropped on the DNA chip containing the whole genes of yeast (DNA Chip Research Inc. Japan) so that the cDNAs were hybridized on the DNA chip at 65° C. for over 12 hours. The fluoresces intensity of the DNA chip was read with a scanner, and the ratio relative to the fluorescence intensity resulting from the absence of chemical substance was estimated as the following, which is shown in Tables 1 to 9: [formula]
# In the Tables, “Intensity” indicated in the rightmost column is a value of the level of expressed mRNA of each gene in control cells as divided by the average level of the expressions of the whole genes.
substance,measurement,setting,value
manganese ethylenebis(dithiocarbamate) [(8)],The level of expressed mRNA in the presence of chemical substance/,"yeast gene YKL086W, ratio to control without chemical",1.1
same,The level of expressed mRNA in the presence of chemical substance/The level of expressed mRNA in the absence of chemical substance,yeast gene YKL096W,0.5
same,The level of expressed mRNA in the presence of chemical substance/,"yeast gene YKL151C, ratio to control without chemical substance, 2 h culture",1.0
same,The level of expressed mRNA in the presence of chemical substance/,"yeast gene YKL153W, ratio to control without chemical substance, 2 h culture",0.7
same,The level of expressed mRNA in the presence of chemical substance/The level of expressed mRNA in the absence of chemical substance,yeast gene YKL165C,1.5
same,The level of expressed mRNA in the presence of chemical substance/The level of expressed mRNA in the absence of chemical substance,yeast gene YKL193C,1.4
same,The level of expressed mRNA in the presence of chemical substance/,"yeast gene YKL195W, ratio to control without chemical substance, 2 h culture",1.2
same,The level of expressed mRNA in the presence of chemical substance/in the absence of chemical substance,yeast gene YKR009C,0.9
same,The level of expressed mRNA in the presence of chemical substance/,"yeast gene YKR091W, ratio to control without chemical",1.3
same,The level of expressed mRNA in the presence of chemical substance/,"yeast gene YLR054C, ratio to control without chemical substance, 2 h culture",1.1
same,The level of expressed mRNA in the presence of chemical substance/The level of expressed mRNA in the absence of chemical substance,yeast gene YLR120C,0.9
same,The level of expressed mRNA in the presence of chemical substance/The level of expressed mRNA in the absence of chemical substance,yeast gene YLR136C,1.1
same,The level of expressed mRNA in the presence of chemical substance/,"yeast gene YLR149C, ratio to control without chemical substance, 2 h culture",1.1
same,The level of expressed mRNA in the presence of chemical substance/,"yeast gene YLR152C, ratio to control without chemical substance, 2 h culture",1.2
same,The level of expressed mRNA in the presence of chemical substance/The level of expressed mRNA in the absence of chemical substance,yeast gene YLR178C,0.9
same,The level of expressed mRNA in the presence of chemical substance/,"yeast gene YLR194C, ratio to control without chemical",1.0
same,The level of expressed mRNA in the presence of chemical substance/The level of expressed mRNA in the absence of chemical substance,yeast gene YLR250W,1.3
same,The level of expressed mRNA in the presence of chemical substance/,"yeast gene YLR324W, ratio to control without chemical substance, 2 h culture",1.0
same,The level of expressed mRNA in the presence of chemical substance/The level of expressed mRNA in the absence of chemical substance,yeast gene YLR327C,2.2
same,The level of expressed mRNA in the presence of chemical substance/,"yeast gene YLR350W, ratio to control without chemical substance, 2 h culture",1.0
same,The level of expressed mRNA in the presence of chemical substance/in the absence of chemical substance,yeast gene YLR351C,1.2
same,The level of expressed mRNA in the presence of chemical substance/The level of expressed mRNA in the absence of chemical substance,yeast gene YLR356W,0.7
same,The level of expressed mRNA in the presence of chemical substance/The level of expressed mRNA in the absence of chemical substance,yeast gene YLR362W,1.4
same,The level of expressed mRNA in the presence of chemical substance/in the absence of chemical substance,yeast gene YLR375W,1.0
same,The level of expressed mRNA in the presence of chemical substance/,"yeast gene YLR387C, ratio to control without chemical substance, 2 h culture",1.4
same,The level of expressed mRNA in the presence of chemical substance/The level of expressed mRNA in the absence of chemical substance,yeast gene YLR391W,0.7
same,The level of expressed mRNA in the presence of chemical substance/The level of expressed mRNA in the absence of chemical substance,yeast gene YLR429W,1.0
same,The level of expressed mRNA in the presence of chemical substance/,"yeast gene YLR460C, ratio to control without chemical substance, 2 h culture",8.1
same,The level of expressed mRNA in the presence of chemical substance/,"yeast gene YML117W, ratio to control without chemical substance, 2 h culture",0.7
same,The level of expressed mRNA in the presence of chemical substance/The level of expressed mRNA in the absence of chemical substance,yeast gene YMR004W,1.0
same,The level of expressed mRNA in the presence of chemical substance/,"yeast gene YMR009W, ratio to control without chemical substance, 2 h culture",1.4
same,The level of expressed mRNA in the presence of chemical substance/,"yeast gene YMR067C, ratio to control without chemical substance, 2 h culture",1.1
same,The level of expressed mRNA in the presence of chemical substance/,"yeast gene YMR090W, ratio to control without chemical substance, 2 h culture",3.9
same,The level of expressed mRNA in the presence of chemical substance/The level of expressed mRNA in the absence of chemical substance,yeast gene YMR094W,1.0
same,The level of expressed mRNA in the presence of chemical substance/,"yeast gene YMR095C, ratio to control without chemical",1.2
same,The level of expressed mRNA in the presence of chemical substance/,"yeast gene YMR097C, ratio to control without chemical substance, 2 h culture",1.5
same,The level of expressed mRNA in the presence of chemical substance/,"yeast gene YMR102C, ratio to control without chemical substance, 2 h culture",1.0
same,The level of expressed mRNA in the presence of chemical substance/The level of expressed mRNA in the absence of chemical substance,yeast gene YMR104C,0.9
same,The level of expressed mRNA in the presence of chemical substance/,"yeast gene YMR107W, ratio to control without chemical substance, 2 h culture",1.3
same,The level of expressed mRNA in the presence of chemical substance/,"yeast gene YMR180C, ratio to control without chemical substance, 2 h culture",1.8
same,The level of expressed mRNA in the presence of chemical substance/,"yeast gene YMR184W, ratio to control without chemical substance, 2 h culture",1.9
same,The level of expressed mRNA in the presence of chemical substance/,"yeast gene YMR191W, ratio to control without chemical substance, 2 h culture",1.1
same,The level of expressed mRNA in the presence of chemical substance/The level of expressed mRNA in the absence of chemical substance,yeast gene YMR219W,1.1
same,The level of expressed mRNA in the presence of chemical substance/The level of expressed mRNA in the absence of chemical substance,yeast gene YMR226C,1.6
same,The level of expressed mRNA in the presence of chemical substance/in the absence of chemical substance,yeast gene YMR267W,1.5
same,The level of expressed mRNA in the presence of chemical substance/The level of expressed mRNA in the absence of chemical substance,yeast gene YMR275C,0.8
same,The level of expressed mRNA in the presence of chemical substance/The level of expressed mRNA in the absence of chemical substance,yeast gene YMR276W,0.8
same,The level of expressed mRNA in the presence of chemical substance/in the absence of chemical substance,yeast gene YMR278W,1.1
same,The level of expressed mRNA in the presence of chemical substance/in the absence of chemical substance,yeast gene YMR293C,1.0
same,The level of expressed mRNA in the presence of chemical substance/,"yeast gene YMR295C, ratio to control without chemical substance, 2 h culture",1.0
same,The level of expressed mRNA in the presence of chemical substance/The level of expressed mRNA in the absence of chemical substance,yeast gene YMR314W,1.2
same,The level of expressed mRNA in the presence of chemical substance/,"yeast gene YMR316W, ratio to control without chemical substance, 2 h culture",1.6
same,The level of expressed mRNA in the presence of chemical substance/The level of expressed mRNA in the absence of chemical substance,yeast gene YNL006W,1.1
same,The level of expressed mRNA in the presence of chemical substance/The level of expressed mRNA in the absence of chemical substance,yeast gene YNL007C,0.8
same,The level of expressed mRNA in the presence of chemical substance/,"yeast gene YNL044W, ratio to control without chemical substance, 2 h culture",1.8
